Read-outs that look alike come from different tables or passages of the source.
Columns and labels:
[1] = biological target: N-terminally truncated recombinant hDHODH enzyme (Homo sapiens, UniProt Q02127); assay: biochemical; format: biochemical
Method: Briefly, the hDHODH concentration was adjusted in a way that an average slope of approximately 0.2 AU/min served as the positive control (e.g. without inhibitor). The standard assay mixture contained 60 μM 2,6-dichloroindophenol, 50 μM decylubiquinone and 100 μM dihydroorotate. The hDHODH enzyme with or without at least six different concentrations of the compounds was added and measurements were performed in 50 mM TrisHCl, 150 mM KCl and 0.1% Triton X-100 at pH 8.0 and at 30° C. The reaction was started by adding dihydroorotate and measuring the absorption at 600 nm for 2 min. For the determination of the IC50 values, each data point was recorded in triplicate. […].

[2] = biological target: human URAT1 uptake transporter (Homo sapiens (Human), UniProt Q96S37); assay: Human URAT1 uptake transporter assay (MDCKII-URAT1-LV, SOLVO); format: cell-based; details: 10 μM compound, 20 μM uric acid probe substrate
human URAT1 uptake transporter, sequence (Q96S37 whole entry): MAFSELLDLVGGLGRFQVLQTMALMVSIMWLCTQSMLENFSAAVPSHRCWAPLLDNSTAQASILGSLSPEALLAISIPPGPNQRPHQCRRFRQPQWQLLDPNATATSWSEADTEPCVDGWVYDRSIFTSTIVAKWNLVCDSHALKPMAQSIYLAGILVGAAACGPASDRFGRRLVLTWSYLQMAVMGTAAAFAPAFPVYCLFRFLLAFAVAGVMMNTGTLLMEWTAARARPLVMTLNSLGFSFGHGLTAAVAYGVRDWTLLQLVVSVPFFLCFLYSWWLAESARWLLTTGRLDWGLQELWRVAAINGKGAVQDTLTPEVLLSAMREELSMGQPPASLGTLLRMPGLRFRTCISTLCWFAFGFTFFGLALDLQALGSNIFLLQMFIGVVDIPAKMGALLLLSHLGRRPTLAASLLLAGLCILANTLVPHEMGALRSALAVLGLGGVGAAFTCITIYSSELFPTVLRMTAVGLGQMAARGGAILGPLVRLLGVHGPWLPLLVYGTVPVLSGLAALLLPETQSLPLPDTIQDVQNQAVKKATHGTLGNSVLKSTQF
Method: In the human URAT1 uptake transporter assay (host cell line: MDCKII), the accumulation of the probe substrate in the presence of a DHODH inhibitor (at a concentration of 10 μM) into cells was measured. The assay was executed at SOLVO with catalogue number MDCKII-URAT1-LV. 20 μM uric acid served as probe substrate. Reference inhibitor was benzbromarone at a concentration of 300 μM, which served as internal control.

SARS-CoV-2 = SARS-CoV-2 viral replication (YFP) assay; format: cell-based; details: Severe acute respiratory syndrome coronavirus 2, read-out: EC50 range
[3] = Mouse pharmacokinetics, female, deuteration matched pair analysis; format: in vivo, mice (C57BL/6J); details: for AUC(0-t) / Cmax / half-life: C57BL/6J, mouse, in vivo; for AUC(0-t) / Cmax / F: female mice; for AUC(0-t): 0 to 8 h; for Cmax: 5 mg/kg oral, 1 mg/kg intravenous cassette; for F: bioavailability; for half-life: female
Method: In another matched pair analysis the benefit of deuteration of the N-methoxyacetamide moiety was tested: the pharmacokinetic properties of the compounds were evaluated in 3 female mice (C57BL/6J, 8 week old) after oral or intravenous cassette dosing to assess the oral bioavailability. Dose was 5 mg/kg (oral) and 1 mg/kg (intravenous), application volume was 5 mL/kg (oral) and 2 mL/kg (intravenous), vehicle was 5% solutol, 95% NaCl solution (at 0.9% saline concentration) for oral and 5% solutol, 5% ethanol, 90% NaCl solution (at 0.9% saline concentration) for intravenous application. At each designated time point (0.25, 0.5, 1, 2, 4 and 8 h after dosing for oral; 0.083, 0.25, 0.5, 1, 4 and 8 h after dosing for intravenous), 20 μL whole blood were collected from the tail vein into Li-heparin tubes, frozen on dry ice within 1-2 minutes of sampling and stored at −20° C. until processed for LC-MS analysis.

[4] = Rat pharmacokinetics, oral cassette dosing; set-up: species or system Sprague Dawley rats; details: Sprague Dawley, in vivo; for AUC(0-t) / Cmax / AUC(0-inf): female rats, oral cassette; for AUC(0-t): 0 to 8 h; for Cmax: blood; for AUC(0-inf): calculated to infinity; for half-life: female, po
Method: The pharmacokinetics of compounds of the present invention was evaluated in 3 female Sprague Dawley rats (8 week old) after oral cassette dosing (vehicle: 5% solutol/95% NaCl solution (at 0.9% saline concentration; application volume: 5 mL/kg) to asses the exposure of the test items. At each designated time point (0.25, 0.5, 1, 2, 4 and 8 h after dosing), 20 μL blood were collected from the tail vein into Li-heparin tubes, cooled on ice and stored at −20° C. until processed for LC-MS analysis. The obtained data is as follows: […]

[5] = Metabolic stability in rat liver microsomes; details: SD
From the text: (§1) The metabolism was monitored by HPLC-MS/MS. Verapamil served as positive control.

[6] = Metabolic stability in human liver microsomes
From the text: as §1

[7] = human DHODH assay, read-out: IC50 range

N-terminally truncated recombinant hDHODH enzyme, sequence (Q02127 whole entry, looked up, the tested form may be a part): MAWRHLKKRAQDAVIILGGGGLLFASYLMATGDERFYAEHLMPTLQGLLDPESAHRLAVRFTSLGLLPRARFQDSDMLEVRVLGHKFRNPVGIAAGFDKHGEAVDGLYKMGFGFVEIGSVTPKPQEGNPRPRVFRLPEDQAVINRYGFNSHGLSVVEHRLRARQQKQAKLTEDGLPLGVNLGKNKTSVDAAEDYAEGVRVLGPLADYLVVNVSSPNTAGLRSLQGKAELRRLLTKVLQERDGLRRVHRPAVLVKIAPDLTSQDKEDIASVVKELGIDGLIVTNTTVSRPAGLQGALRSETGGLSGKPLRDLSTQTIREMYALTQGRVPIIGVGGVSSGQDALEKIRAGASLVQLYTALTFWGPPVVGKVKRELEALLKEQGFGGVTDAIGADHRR

NS(=O)(=O)NC(=O)C1=C(C(=O)Nc2c(F)c(F)c(-c3cccc(OC(F)(F)F)c3)c(F)c2F)CCC1 [Example 2, N^1-Sulfamoyl-N^2-(2,3,5,6-tetrafluoro-3′-(trifluoromethoxy)-[1,1′-biphenyl]-4-yl)cyclopent-1-ene-1,2-dicarboxamide]
IC50 [1, 7]: < 100 nM
human URAT1 uptake transporter stimulation @ 10 μM [2]: 72%
EC50 (SARS-CoV-2): 10000 to 25000 nM

[2H]C([2H])([2H])ONC(=O)C1=C(C(=O)Nc2c(F)c(F)c(-c3cccc(OC([2H])([2H])[2H])c3)c(F)c2F)COC1 [Example 5/5]
IC50 [1, 7]: < 100 nM
EC50 (SARS-CoV-2): < 1000 nM
AUC(0-t) [3]: 165 µg·h/mL
Cmax [3]: 70000 ng/mL
F [3]: 56%
half-life [3]: > 8 h
AUC(0-t) [4]: 113 µM·h
Cmax [4]: 19 µM
AUC(0-inf) [4]: 252 µM·h
half-life [4]: 8.4 h

[2H]C([2H])([2H])Oc1cccc(-c2cc(F)c(NC(=O)c3ccsc3C(=O)NOCCO)c(F)c2)c1 [Example 9/1]
IC50 [1, 7]: < 100 nM
EC50 (SARS-CoV-2): < 1000 nM
microsomal CLint ([5]; female): 52.8 µL/min/mg
microsomal CLint ([5]; male): 162 µL/min/mg
microsomal CLint ([6]; female): 40.4 µL/min/mg
microsomal CLint ([6]; male): 67.2 µL/min/mg

[2H]C([2H])([2H])Oc1cccc(-c2c(F)c(F)c(NC(=O)C3=C(C(=O)NS(C)(=O)=O)CCC3)c(F)c2F)c1 [Example 1/7]
IC50 [1, 7]: < 100 nM
EC50 (SARS-CoV-2): < 10000 nM
microsomal CLint ([5]; female): 30.5 µL/min/mg
microsomal CLint ([5]; male): 20 µL/min/mg
microsomal CLint ([6]; female): 4.01 µL/min/mg
microsomal CLint ([6]; male): 1.32 µL/min/mg

[2H]C([2H])([2H])Oc1cccc(-c2c(F)c(F)c(NC(=O)C3=C(C(=O)NOC)COC3)c(F)c2F)c1 [Example 5/4]
IC50 [1, 7]: < 100 nM
EC50 (SARS-CoV-2): < 1000 nM
AUC(0-t) [3]: 106 µg·h/mL
Cmax [3]: 18000 ng/mL
F [3]: 39%
half-life [3]: > 8 h
AUC(0-t) [4]: 125 µM·h
Cmax [4]: 21 µM
AUC(0-inf) [4]: 271 µM·h
half-life [4]: 7.9 h

CONC(=O)c1sccc1C(=O)Nc1c(F)cc(-c2cccc(OC)c2)cc1F [Example 9/9]
IC50 [1, 7]: < 100 nM
microsomal CLint ([5]; female): 69.3 µL/min/mg
microsomal CLint ([5]; male): 192 µL/min/mg
microsomal CLint ([6]; female): 66.1 µL/min/mg
microsomal CLint ([6]; male): 93.9 µL/min/mg

COc1cccc(-c2c(F)c(F)c(NC(=O)C3=C(C(=O)NS(C)(=O)=O)CCC3)c(F)c2F)c1 [Example 1/13]
IC50 [1, 7]: < 100 nM
microsomal CLint ([5]; female): 35.4 µL/min/mg
microsomal CLint ([5]; male): 25.5 µL/min/mg
microsomal CLint ([6]; female): 10.3 µL/min/mg
microsomal CLint ([6]; male): 14.4 µL/min/mg

CONC(=O)C1=C(C(=O)Nc2c(F)c(F)c(-c3cccc(OC)c3)c(F)c2F)COC1 [Example 5/9]
IC50 [1, 7]: < 100 nM
AUC(0-t) [4]: 91 µM·h
Cmax [4]: 17 µM
AUC(0-inf) [4]: 185 µM·h
half-life [4]: 6.6 h

[2H]C([2H])([2H])Oc1cccc(-c2cc(F)c(NC(=O)C3=C(C(=O)NOC)COC3)c(F)c2)c1 [Example 5, N^3-(3,5-Difluoro-3′-(methoxy-d3)-[1,1′-biphenyl]-4-yl)-N^4-methoxy-2,5-dihydrofuran-3,4-dicarboxamide]
IC50 [1]: 100 to 1000 nM
EC50 (SARS-CoV-2): < 10000 nM

[2H]C([2H])([2H])Oc1cccc(-c2c(F)c(F)c(NC(=O)c3sc(C)cc3C(=O)NOC)c(F)c2F)c1 [Example 17-2, N3-methoxy-5-methyl-N2-(2,3,5,6-tetrafluoro-3′-(methoxy-d3)-[1,1′-biphenyl]-4-yl)thiophene-2,3-dicarboxamide]
IC50 [1, 7]: < 100 nM
EC50 (SARS-CoV-2): < 1000 nM

[2H]C([2H])([2H])ONC(=O)c1cscc1C(=O)Nc1c(F)c(F)c(-c2ccccc2OC([2H])([2H])[2H])c(F)c1F [4/32]
IC50 [1, 7]: < 100 nM
EC50 (SARS-CoV-2): < 1000 nM

[2H]C([2H])([2H])ONC(=O)c1sccc1C(=O)Nc1c(F)c(F)c(-c2cccc(OC([2H])([2H])[2H])c2)c(F)c1F [9/6]
IC50 [1, 7]: < 100 nM
EC50 (SARS-CoV-2): < 1000 nM
AUC(0-t) [3]: 25 µg·h/mL
Cmax [3]: 6700 ng/mL
F [3]: 76%
half-life [3]: 2.5 h

[2H]C([2H])([2H])Oc1ccccc1-c1cc(F)c(NC(=O)C2=C(C(=O)NS(C)(=O)=O)CCC2)c(F)c1 [1/6]
IC50 [1, 7]: < 100 nM
EC50 (SARS-CoV-2): 25000 to 50000 nM

[2H]C([2H])([2H])Oc1ccccc1-c1c(F)c(F)c(NC(=O)C2=C(C(=O)NOCCO)CSC2)c(F)c1F [6/3]
IC50 [1, 7]: < 100 nM
EC50 (SARS-CoV-2): < 1000 nM

[2H]C([2H])([2H])Oc1cccc(-c2cc(F)c(NC(=O)C3=C(C(=O)NOCC)CCC3)c(F)c2)c1 [4/9]
IC50 [1]: 1000 to 10000 nM
EC50 (SARS-CoV-2): < 10000 nM

[2H]C([2H])([2H])Oc1cccc(-c2cc(F)c(NC(=O)C3=C(C(=O)NOC)CCC3)c(OC([2H])([2H])[2H])c2)c1 [8/2]
IC50 [1]: 1000 to 10000 nM
EC50 (SARS-CoV-2): < 10000 nM

[2H]C([2H])([2H])Oc1ccccc1-c1c(F)c(F)c(NC(=O)C2=C(C(=O)NOCCO)CCC2)c(F)c1F [4/27]
IC50 [1]: 100 to 1000 nM
EC50 (SARS-CoV-2): < 1000 nM

[2H]C([2H])([2H])Oc1cccc(-c2cc(F)c(NC(=O)C3=C(c4noc(=O)[nH]4)CCC3)c(F)c2)c1 [Example 3-2, N-(3,5-Difluoro-3′-(methoxy-d3)-[1,1′-biphenyl]-4-yl)-2-(5-oxo-4,5-dihydro-1,2,4-oxadiazol-3-yl)cyclopent-1-ene-1-carboxamide]
IC50 [1, 7]: > 10000 nM
EC50 (SARS-CoV-2): < 10000 nM

[2H]C([2H])([2H])ONC(=O)c1cscc1C(=O)Nc1c(F)c(F)c(-c2cccc(OC([2H])([2H])[2H])c2)c(F)c1F [4/31]
IC50 [1, 7]: < 100 nM
EC50 (SARS-CoV-2): < 1000 nM

[2H]C([2H])([2H])Oc1cccc(-c2cc(F)c(NC(=O)c3ccsc3C(=O)NOC)c(F)c2F)c1 [9/5]
IC50 [1, 7]: < 100 nM
EC50 (SARS-CoV-2): < 1000 nM

[2H]C([2H])([2H])Oc1cccc(-c2cc(F)c(NC(=O)C3=C(/C(N)=N/O)CCC3)c(F)c2)c1 [Example 3-1, (Z)—N-(3,5-Difluoro-3′-(methoxy-d3)-[1,1′-biphenyl]-4-yl)-2-(N-hydroxycarbamimid-oyl)cyclopent-1-ene-1-carboxamide]
IC50 [1]: > 10000 nM
EC50 (SARS-CoV-2): < 10000 nM

[2H]C([2H])([2H])Oc1cccc(-c2cc(F)c(NC(=O)C3=C(C(=O)NS(=O)(=O)C4(C)CC4)CCC3)c(F)c2)c1 [1/2]
IC50 [1, 7]: > 10000 nM
EC50 (SARS-CoV-2): 10000 to 25000 nM

[2H]C([2H])([2H])Oc1cccc(-c2cc(F)c(NC(=O)C3=C(C(=O)NS(N)(=O)=O)COC3)c(F)c2)c1 [Example 2-1, N^3-(3,5-Difluoro-3′-(methoxy-d3)-[1,1′-biphenyl]-4-yl)-N^4-sulfamoyl-2,5-dihydrofuran-3,4-di-carboxamide]
IC50 [1]: 100 to 1000 nM
EC50 (SARS-CoV-2): 10000 to 25000 nM

— patent publication US20250066290A1, “DHODH INHIBITORS CONTAINING A CARBOXYLIC ACID BIOISOSTERE” (IMMUNIC AG, priority 2021, published 2025)
